Measured values taken from patent publication US20230117034A1, “PYRAZOLOTRIAZINES” (Bayer Aktiengesellschaft, priority 2019, published 2023).

Assays:
CDK12/CycK = CDK12/CycK (Homo sapiens, UniProt Q9NYV4); test: CDK12/CycK high ATP kinase assay (TR-FRET, 2 mM ATP); type: biochemical; settings: 2 mM ATP (high ATP); median; read-out: CDK12/CyclinK, 2 mM ATP (high ATP), IC50-[mol/l] (median)
Summary of the method: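 Read-out is TR-FRET (Eu-anti-rabbit IgG, anti-phospho-c-Myc Ser62 antibody, streptavidin-XL665) after EDTA stop. Reaction ran 60 min at 22 °C using 1 µM biotin-peptide and high ATP (2 mM) with roughly 0.75 nM recombinant CDK12/CycK, after 15 min compound pre-binding; normalised emission ratios yield IC50.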

CDK2/CycE = target: T1, CDK2/CycE (Homo sapiens, UniProt P24941); test: CDK2/CycE kinase assay (TR-FRET, 2 mM ATP); type: biochemical; settings: 2 mM ATP (high ATP); median; read-out: CDK2/CyclinE, 2 mM ATP (high ATP), IC50 (median)
T1 construct: purchased ProQinase GmbH (Freiburg, Germany); host or cells: insect cells (Sf9)
Summary of the method: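 Biotin-peptide phosphorylation (0.75 µM substrate, 2 mM ATP final, 25 min, 22 °C) by Sf9-expressed GST-CDK2/GST-CycE, after a 15-min compound pre-binding step. Inhibition scaled between enzyme-free (100%) and uninhibited (0%) wells.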

CDK12/CycK, sequence (Q9NYV4 with tags, fused parts or gaps): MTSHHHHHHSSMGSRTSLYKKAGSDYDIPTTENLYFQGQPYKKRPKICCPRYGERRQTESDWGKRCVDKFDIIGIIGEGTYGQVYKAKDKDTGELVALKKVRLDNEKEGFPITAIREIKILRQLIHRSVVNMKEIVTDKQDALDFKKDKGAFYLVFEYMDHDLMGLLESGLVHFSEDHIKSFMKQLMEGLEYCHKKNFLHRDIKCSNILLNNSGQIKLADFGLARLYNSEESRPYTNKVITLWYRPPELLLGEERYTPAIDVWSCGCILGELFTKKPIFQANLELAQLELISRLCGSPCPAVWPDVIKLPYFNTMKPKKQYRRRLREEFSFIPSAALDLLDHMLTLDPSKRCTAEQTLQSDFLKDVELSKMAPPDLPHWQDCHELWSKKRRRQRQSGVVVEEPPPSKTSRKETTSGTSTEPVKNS
CDK12/CycK, sequence (O75909 1-300 partner limits assumed): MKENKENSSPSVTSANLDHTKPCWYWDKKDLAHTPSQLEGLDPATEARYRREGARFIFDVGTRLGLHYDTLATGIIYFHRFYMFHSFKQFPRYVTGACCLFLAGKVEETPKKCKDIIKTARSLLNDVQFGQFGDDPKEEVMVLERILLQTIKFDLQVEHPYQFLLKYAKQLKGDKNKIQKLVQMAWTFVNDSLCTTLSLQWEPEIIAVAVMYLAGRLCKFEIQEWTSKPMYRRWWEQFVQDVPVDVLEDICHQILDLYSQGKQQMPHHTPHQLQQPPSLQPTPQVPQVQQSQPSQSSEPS

| Structure (SMILES) | IC50 (CDK12/CycK) [µM] | IC50 (CDK2/CycE) [µM] |
| --- | --- | --- |
| Fc1ccc2[nH]c(CNc3nc(N4CCNCC4)nc4c(C5CC5)cnn34)nc2c1F [Example 174, 8-cyclopropyl-N-[(4,5-difluoro-1H-benzimidazol-2-yl)methyl]-2-(piperazin-1-yl)pyrazolo[1,5-a][1,3,5]triazin-4-amine] | 1.19 | > 20 |
| C[C@@H]1CN(c2nc(NCc3nc4ccccc4[nH]3)n3ncc(Br)c3n2)CCN1 [Example 168, N-[(1H-benzimidazol-2-yl)methyl]-8-bromo-2-[(3R)-3-methylpiperazin-1-yl]pyrazolo[1,5-a][1,3,5]triazin-4-amine] | 5.78 | 12.3 |
| COc1cccc2[nH]c(CNc3nc(N4C[C@@H]5CCCN[C@@H]5C4)nc4c(C5CC5)cnn34)nc12 [Example 214, 8-cyclopropyl-N-[(4-methoxy-1H-benzimidazol-2-yl)methyl]-2-[(4aS,7aS)-octahydro-6H-pyrrolo[3,4-b]pyridin-6-yl]pyrazolo[1,5-a][1,3,5]triazin-4-amine] | 8.09 | 17.7 |
| Cc1ccc2[nH]c(CNc3nc(N4CCN(C)CC4)nc4c(C5CC5)cnn34)nc2c1 [Example 210, 8-cyclopropyl-N-[(5-methyl-1H-benzimidazol-2-yl)methyl]-2-(4-methylpiperazin-1-yl)pyrazolo[1,5-a][1,3,5]triazin-4-amine] | > 20 | > 20 |
| COc1cccc2[nH]c(CNc3nc(N4CCOCC4)nc4c(C5CC5)cnn34)nc12 [Example 213, 8-cyclopropyl-N-[(4-methoxy-1H-benzimidazol-2-yl)methyl]-2-morpholino-pyrazolo[1,5-a][1,3,5]triazin-4-amine] | 1.05 | 5.49 |
| CO[C@H]1CCN(c2nc(NCc3nc4ccccc4[nH]3)n3ncc(Br)c3n2)C1 [Example 222, N-[(1H-benzimidazol-2-yl)methyl]-8-bromo-2-[(3S)-3-methoxypyrrolidin-1-yl]pyrazolo[1,5-a][1,3,5]triazin-4-amine] | 6.01 | 14.6 |
| Cc1cc(-c2cnn3c(NCc4nc5ccccc5[nH]4)nc(N4CCN(C)CC4)nc23)ccn1 [Example 243, N-[(1H-benzimidazol-2-yl)methyl]-2-(4-methylpiperazin-1-yl)-8-(2-methylpyridin-4-yl)pyrazolo[1,5-a][1,3,5]triazin-4-amine] | > 20 | > 20 |
| C[C@@H]1CN(c2nc(NCc3nc4c(F)cccc4[nH]3)n3ncc(C4CC4)c3n2)C[C@H](C)N1 [Example 186, 8-cyclopropyl-2-[(3R,5S)-3,5-dimethylpiperazin-1-yl]-N-[(4-fluoro-1H-benzimidazol-2-yl)methyl]pyrazolo[1,5-a][1,3,5]triazin-4-amine] | 2.72 | > 20 |
| Fc1cccc2[nH]c(CNc3nc(N4C[C@@H]5C[C@H]4CO5)nc4c(C5CC5)cnn34)nc12 [Example 183, 8-cyclopropyl-N-[(4-fluoro-1H-benzimidazol-2-yl)methyl]-2-[(1S,4S)-2-oxa-5-azabicyclo[2.2.1]heptan-5-yl]pyrazolo[1,5-a][1,3,5]triazin-4-amine] | 10.2 | > 20 |
| C[C@@H]1CN(c2nc(NCc3nc4cc(F)ccc4[nH]3)n3ncc(C4CC4)c3n2)C[C@H](C)N1 [Example 175, 8-cyclopropyl-2-[(3R,5S)-3,5-dimethylpiperazin-1-yl]-N-[(5-fluoro-1H-benzimidazol-2-yl)methyl]pyrazolo[1,5-a][1,3,5]triazin-4-amine] | 11 | > 20 |
| Cc1ccc2[nH]c(CNc3nc(N4CCOCC4)nc4c(C5CC5)cnn34)nc2c1 [Example 193, 8-cyclopropyl-N-[(5-methyl-1H-benzimidazol-2-yl)methyl]-2-(morpholin-4-yl)pyrazolo[1,5-a][1,3,5]triazin-4-amine] | 1.75 | 10.8 |
| Fc1ccc2[nH]c(CNc3nc(N4C[C@@H]5CCCN[C@@H]5C4)nc4c(C5CC5)cnn34)nc2c1 [Example 180, 8-cyclopropyl-N-[(5-fluoro-1H-benzimidazol-2-yl)methyl]-2-[(4aS, 7aS)-octahydro-6H-pyrrolo[3,4-b]pyridin-6-yl]pyrazolo[1,5-a][1,3,5]triazin-4-amine] | 17.3 | > 20 |
| Cc1ccc2[nH]c(CNc3nc(N4C[C@@H]5CCCN[C@@H]5C4)nc4c(C5CC5)cnn34)nc2c1 [Example 195, 8-cyclopropyl-N-[(5-methyl-1H-benzimidazol-2-yl)methyl]-2-[(4aS,7aS)-octahydro-6H-pyrrolo[3,4-b]pyridin-6-yl]pyrazolo[1,5-a][1,3,5]triazin-4-amine] | 8.23 | > 20 |
| Brc1cnn2c(NCc3nc4ccccc4[nH]3)nc(N3CC4CCC3CN4)nc12 (stereo not shown) [Example 220, N-(1H-benzimidazol-2-ylmethyl)-8-bromo-2-(2,5-diazabicyclo[2.2.2]octan-2-yl)pyrazolo[1,5-a][1,3,5]triazin-4-amine] | 5.55 | 0.908 |
